The NIST ThermoML archive (doi:10.1021/je900194v)
Where “and” joins values, the source holds several entries; their conditions need not be identical. Identical values can stand only once.

Legend:
[1] = 101 kPa, Liquid; for viscosity: Capillary tube (Ostwald / Ubbelohde) method; for mass density: Vibrating tube method
[2] = xn = mol fraction of the nth substance listed; details: 101 kPa, Liquid; for viscosity: Capillary tube (Ostwald / Ubbelohde) method; for mass density: Vibrating tube method

Cc1ccccc1C [1,2-dimethylbenzene]
[1]
Details | mass density [kg/m3] | viscosity [mPa·s]
298.15 K | 875.08 | 0.758
308.15 K | 866.62 | 0.665
318.15 K | 858.12 | 0.589

Cc1ccccc1C [1,2-dimethylbenzene] + COC(=O)CCCCl
[2], x2 = 0
Details | mass density [kg/m3] | viscosity [mPa·s]
298.15 K | 875.08 | 0.758
308.15 K | 866.62 | 0.665
318.15 K | 858.12 | 0.589

Cc1cccc(C)c1 [1,3-dimethylbenzene]
[1]
Details | mass density [kg/m3] | viscosity [mPa·s]
298.15 K | 859.83 | 0.587
308.15 K | 851.19 | 0.524
318.15 K | 842.49 | 0.471

Cc1cccc(C)c1 [1,3-dimethylbenzene] + COC(=O)CCCCl
[2], x2 = 0
Details | mass density [kg/m3] | viscosity [mPa·s]
298.15 K | 859.83 | 0.587
308.15 K | 851.19 | 0.524
318.15 K | 842.49 | 0.471

Cc1ccc(C)cc1 [1,4-dimethylbenzene]
[1]
Details | mass density [kg/m3] | viscosity [mPa·s]
298.15 K | 856.68 | 0.609
308.15 K | 847.96 | 0.541
318.15 K | 839.2 | 0.484

Cc1ccc(C)cc1 [1,4-dimethylbenzene] + COC(=O)CCCCl
[2], x2 = 0
Details | mass density [kg/m3] | viscosity [mPa·s]
298.15 K | 856.68 | 0.609
308.15 K | 847.96 | 0.541
318.15 K | 839.2 | 0.484

c1ccccc1 [benzene]
[1]
Details | mass density [kg/m3] | viscosity [mPa·s]
298.15 K | 873.61 | 0.603
308.15 K | 862.28 | 0.533
318.15 K | 852.08 | 0.466

c1ccccc1 [benzene] + COC(=O)CCCCl
[2], x2 = 0
Details | mass density [kg/m3] | viscosity [mPa·s]
298.15 K | 873.61 | 0.603
308.15 K | 862.28 | 0.533
318.15 K | 852.08 | 0.466

COC(=O)CCCCl [methyl 4-chlorobutanoate]
[1]
Details | mass density | viscosity [mPa·s]
298.15 K | 1116.24 kg/m3 | 1.519
308.15 K | 1105.22 kg/m3 and 1105.23 kg/m3 | 1.279
318.15 K | 1094.13 kg/m3 | 1.089

COC(=O)CCCCl [methyl 4-chlorobutanoate] + Cc1ccc(C)cc1
[2]
Details | mass density, 298.15 K [kg/m3] | mass density, 308.15 K [kg/m3] | mass density, 318.15 K [kg/m3] | viscosity, 298.15 K [mPa·s] | viscosity, 308.15 K [mPa·s] | viscosity, 318.15 K [mPa·s]
x1 = 0.0999 | 882.47 | 873.48 | 864.45 | 0.662 | 0.586 | 0.522
x1 = 0.2001 | 908.43 | 899.17 | 889.87 | 0.714 | 0.629 | 0.561
x1 = 0.3 | 934.33 | 924.84 | 915.3 | 0.775 | 0.679 | 0.6
x1 = 0.4001 | 960.27 | 950.54 | 940.77 | 0.847 | 0.738 | 0.651
x1 = 0.4999 | 986.16 | 976.2 | 966.2 | 0.927 | 0.806 | 0.705
x1 = 0.6 | 1012.09 | 1001.91 | 991.69 | 1.023 | 0.886 | 0.772
x1 = 0.7 | 1038.03 | 1027.62 | 1017.19 | 1.133 | 0.978 | 0.846
x1 = 0.8 | 1063.99 | 1053.37 | 1042.71 | 1.255 | 1.077 | 0.926
x1 = 0.9 | 1090.06 | 1079.25 | 1068.37 | 1.385 | 1.179 | 1.008
x1 = 1 | 1116.24 | 1105.23 | 1094.13 | 1.519 | 1.279 | 1.089

COC(=O)CCCCl [methyl 4-chlorobutanoate] + Cc1cccc(C)c1
[2]
Details | mass density, 298.15 K [kg/m3] | mass density, 308.15 K [kg/m3] | mass density, 318.15 K [kg/m3] | viscosity, 298.15 K [mPa·s] | viscosity, 308.15 K [mPa·s] | viscosity, 318.15 K [mPa·s]
x1 = 0.0999 | 885.23 | 876.33 | 867.38 | 0.639 | 0.571 | 0.512
x1 = 0.1999 | 910.66 | 901.49 | 892.27 | 0.7 | 0.624 | 0.55
x1 = 0.2999 | 936.14 | 926.72 | 917.26 | 0.769 | 0.674 | 0.596
x1 = 0.399 | 961.41 | 951.74 | 942.03 | 0.843 | 0.737 | 0.649
x1 = 0.4999 | 987.21 | 977.32 | 967.37 | 0.928 | 0.807 | 0.706
x1 = 0.5995 | 1012.73 | 1002.6 | 992.39 | 1.022 | 0.882 | 0.77
x1 = 0.6996 | 1038.43 | 1028.06 | 1017.63 | 1.128 | 0.966 | 0.839
x1 = 0.7992 | 1064.11 | 1053.51 | 1042.83 | 1.238 | 1.062 | 0.92
x1 = 0.8999 | 1090.15 | 1079.3 | 1068.38 | 1.368 | 1.163 | 1.004
x1 = 1 | 1116.24 | 1105.22 | 1094.13 | 1.519 | 1.279 | 1.089

COC(=O)CCCCl [methyl 4-chlorobutanoate] + Cc1ccccc1
[2]
Details | mass density, 298.15 K [kg/m3] | mass density, 308.15 K [kg/m3] | mass density, 318.15 K [kg/m3] | viscosity, 298.15 K [mPa·s] | viscosity, 308.15 K [mPa·s] | viscosity, 318.15 K [mPa·s]
x1 = 0.1 | 891.28 | 881.71 | 872.09 | 0.614 | 0.551 | 0.486
x1 = 0.2 | 919.47 | 909.69 | 899.87 | 0.68 | 0.599 | 0.53
x1 = 0.3 | 946.73 | 936.79 | 926.77 | 0.753 | 0.662 | 0.582
x1 = 0.4001 | 973.21 | 963.07 | 952.89 | 0.829 | 0.731 | 0.635
x1 = 0.5 | 998.81 | 988.49 | 978.14 | 0.919 | 0.796 | 0.7
x1 = 0.6 | 1023.69 | 1013.23 | 1002.74 | 1.021 | 0.883 | 0.767
x1 = 0.7 | 1047.84 | 1037.22 | 1026.57 | 1.123 | 0.962 | 0.831
x1 = 0.8 | 1071.31 | 1060.54 | 1049.74 | 1.246 | 1.062 | 0.913
x1 = 0.8998 | 1094.05 | 1083.16 | 1072.21 | 1.38 | 1.17 | 1.001
x1 = 1 | 1116.24 | 1105.22 | 1094.13 | 1.519 | 1.279 | 1.089

COC(=O)CCCCl [methyl 4-chlorobutanoate] + Cc1ccccc1C
[2]
Details | mass density, 298.15 K [kg/m3] | mass density, 308.15 K [kg/m3] | mass density, 318.15 K [kg/m3] | viscosity, 298.15 K [mPa·s] | viscosity, 308.15 K [mPa·s] | viscosity, 318.15 K [mPa·s]
x1 = 0.1 | 899.36 | 890.63 | 881.84 | 0.814 | 0.71 | 0.627
x1 = 0.2001 | 923.55 | 914.54 | 905.46 | 0.872 | 0.757 | 0.688
x1 = 0.3 | 947.67 | 938.39 | 929.03 | 0.935 | 0.808 | 0.707
x1 = 0.3998 | 971.75 | 962.19 | 952.59 | 1.001 | 0.863 | 0.752
x1 = 0.4992 | 995.83 | 985.99 | 976.14 | 1.074 | 0.92 | 0.8
x1 = 0.6 | 1020.27 | 1010.17 | 1000.07 | 1.153 | 0.983 | 0.855
x1 = 0.7 | 1044.53 | 1034.19 | 1023.83 | 1.235 | 1.05 | 0.907
x1 = 0.8 | 1068.71 | 1058.13 | 1047.53 | 1.322 | 1.12 | 0.965
x1 = 0.9 | 1092.68 | 1081.88 | 1071.02 | 1.415 | 1.194 | 1.025
x1 = 1 | 1116.24 | 1105.22 | 1094.13 | 1.519 | 1.279 | 1.089

COC(=O)CCCCl [methyl 4-chlorobutanoate] + c1ccccc1
[2]
Details | mass density, 298.15 K [kg/m3] | mass density, 308.15 K [kg/m3] | mass density, 318.15 K [kg/m3] | viscosity, 298.15 K [mPa·s] | viscosity, 308.15 K [mPa·s] | viscosity, 318.15 K [mPa·s]
x1 = 0.1 | 905.57 | 894.74 | 883.87 | 0.669 | 0.579 | 0.507
x1 = 0.2001 | 935.29 | 924.42 | 913.49 | 0.731 | 0.634 | 0.553
x1 = 0.3 | 962.99 | 952.12 | 941.13 | 0.799 | 0.69 | 0.601
x1 = 0.4001 | 989.08 | 978.2 | 967.18 | 0.875 | 0.754 | 0.661
x1 = 0.5 | 1013.66 | 1002.77 | 991.75 | 0.96 | 0.828 | 0.719
x1 = 0.5999 | 1036.89 | 1026.01 | 1014.99 | 1.054 | 0.907 | 0.785
x1 = 0.7 | 1058.82 | 1047.97 | 1036.94 | 1.157 | 0.99 | 0.853
x1 = 0.8 | 1079.42 | 1068.49 | 1057.55 | 1.271 | 1.08 | 0.927
x1 = 0.9 | 1098.6 | 1087.62 | 1076.65 | 1.391 | 1.18 | 1.007
x1 = 1 | 1116.24 | 1105.22 | 1094.13 | 1.519 | 1.279 | 1.089

Cc1ccccc1 [toluene]
[1]
Details | mass density [kg/m3] | viscosity [mPa·s]
298.15 K | 862.18 | –
308.15 K | 852.81 | 0.499
318.15 K | 843.4 | 0.446

Cc1ccccc1 [toluene] + COC(=O)CCCCl
[2], x2 = 0
Details | mass density [kg/m3] | viscosity [mPa·s]
298.15 K | 862.18 | 0.561
308.15 K | 852.81 | 0.499
318.15 K | 843.4 | 0.446
